Values quoted from earlier work in paper PMC7099596 (ACS Central Science, 2020).

Tests used:
[1] = tested on: SKBr-3 breast cancer cell line; conditions: read-out: EC50 antiproliferative activity, SKBr-3, ref NCI ID: 122750
[2] = tested on: MCF-7 breast cancer cell line; conditions: read-out: EC50 antiproliferative activity, MCF-7, ref NCI ID: 122750

SMILES: COC1=C2C[C@@H](C)C[C@H](OC)[C@H](O)[C@@H](C)/C=C(\C)[C@H](OC(N)=O)[C@@H](OC)/C=C\C=C(/C)C(=O)NC(=CC1=O)C2=O [geldanamycin]
- EC50 [1]: 24 nM
- EC50 [2]: 19.9 nM
